From patent publication US8808702B2, “Sulfide, sulfoxide and sulfone chalcone analogues, derivatives thereof and therapeutic uses thereof” (Temple University-of the Commonwealth System of Higher …, priority 2006, dated 2014)
Like-named read-outs stand apart in the source and are kept apart here.

Experiments:
[1] = system: K562 (chronic myelogenous leukaemia); assay: Effect of compounds on tumor cell lines (assay of Latham et al.), K562; type: cell-based; settings: K562 cells, read-out: K 562 potency (IC50)
Outline: (§1)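 After 96 h of exposure to compound (1–100 μM in DMSO; one compound at 0.1–100 μM), effects were scored by inverted-microscope inspection, with trypan blue viable counts by hemacytometer when required. Cells were seeded at 2.5×10^4 per well and dosed 24 h after plating.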

DU145 (prostate cancer) = assay: Effect of compounds on tumor cell lines (assay of Latham et al.), DU145; type: cell-based; settings: DU145 cells, read-out: DU 145 potency (IC50)
Outline: as §1

[2] = 96 hours after treatment, 1 μM to 100 μM
[3] = Table 1, examined 96 hours after treatment, 1 μM to 100 μM in DMSO

IC50 [1, 2]	IC50 (DU145 (prostate cancer); [2])	SMILES	IC50 [1, 3]	IC50 (DU145 (prostate cancer); [3])	other results
≤ 1 µM	1 to 10 µM	O=C(O)c1ccc(C(=O)C(=Cc2ccc(Br)c([N+](=O)[O-])c2)SCc2ccc(F)cc2)cc1 [Example 252]	–	–	–
≤ 1 µM	1 to 10 µM	O=C(O)c1ccc(C(=O)C(=Cc2ccc(Cl)c([N+](=O)[O-])c2)SCc2ccc(F)cc2)cc1 [Example 255]	–	–	–
–	–	COc1cc(OC)c(C=C(Sc2ccc(Br)cc2)C(=O)c2ccc(Cl)cc2)c(OC)c1 [Example 14]	50 to 100 µM	50 to 100 µM	–
1 to 10 µM	1 to 10 µM	O=C(C(=Cc1ccccc1OCc1ccccc1)SCc1ccc(F)cc1)c1ccc(Br)cc1 [Example 236]	–	–	–
50 to 100 µM	> 100 µM	COc1cc(OC)c(C=C(SCc2ccc(Cl)cc2)C(=O)c2ccc([N+](=O)[O-])cc2)c(OC)c1 [Example 194]	–	–	–
1 to 10 µM	25 to 50 µM	Cc1ccc(CSC(=Cc2ccc[nH]2)C(=O)c2ccc(Cl)cc2)cc1 [Example 280]	–	–	–
≤ 1 µM	1 to 10 µM	CCN(CC)CCNC(=O)c1ccc(C(=O)C(=Cc2ccc(F)c([N+](=O)[O-])c2)SCc2ccc(Br)cc2)cc1 [Example 313]	–	–	–
–	–	CSc1ccc(C=C(Sc2ccc(C)cc2)C(=O)c2ccc(Br)cc2)cc1 [Example 97]	1 to 10 µM	25 to 50 µM	–
–	–	COc1ccc(C(=O)C(=Cc2c(OC)cc(OC)cc2OC)Sc2ccc(F)cc2)cc1 [Example 54]	50 to 100 µM	50 to 100 µM	–
1 to 10 µM	1 to 10 µM	NS(=O)(=O)c1ccc(C(=O)/C(=C\c2ccc(F)c([N+](=O)[O-])c2)SCc2ccc(F)cc2)cc1 [Example 343]	–	–	–
10 to 25 µM	10 to 25 µM	Cc1cc(C)cc(C=C(SCc2ccc(Cl)cc2)C(=O)c2ccc(Cl)cc2)c1 [Example 202]	–	–	–
–	–	Nc1c(Br)cc(Br)cc1C=C(Sc1ccc(Br)cc1)C(=O)c1ccc(Br)cc1 [Example 20]	> 100 µM	> 100 µM	–
10 to 25 µM	25 to 50 µM	O=C(/C(=C\c1ccc(O)c([N+](=O)[O-])c1)SCc1ccc(Br)cc1)c1cc(Cl)ccc1O [Example 187]	–	–	–
–	–	COc1ccc(SC(=Cc2ccc(Br)cc2)C(=O)c2ccc(Br)cc2)cc1 [Example 63]	1 to 10 µM	25 to 50 µM	–
1 to 10 µM	1 to 10 µM	Cc1ccc(CSC(=Cc2ccccc2OCc2ccccc2)C(=O)c2ccc(Cl)cc2)cc1 [Example 274]	–	–	–
–	–	Cc1ccc(SC(=Cc2ccc(F)cc2OC(F)(F)F)C(=O)c2ccc(Br)cc2)cc1 [Example 94]	25 to 50 µM	25 to 50 µM	–
–	–	COc1cc(C=C(Sc2ccc(Br)cc2)C(=O)c2ccc(Br)cc2)ccc1F [Example 39]	1 to 10 µM	1 to 10 µM	–
–	–	COc1ccccc1/C=C(\C(=O)c1ccc(Cl)cc1)S(=O)(=O)Cc1ccc(C)cc1 [Example 428]	–	–	IC50 ([1]; Homo sapiens, Table 4, examined 96 hours after treatment, 1 μM to 100 μM in DMSO): 10 to 25 µM; IC50 (DU145 (prostate cancer); Homo sapiens, DU-145, Table 4, examined 96 hours after treatment, 1 μM to 100 μM in DMSO): 10 to 25 µM
50 to 100 µM	> 100 µM	CN(C)c1ccc(C=C(SCc2ccccc2Cl)C(=O)c2ccc(Cl)cc2)cc1 [Example 127]	–	–	–
–	–	COc1ccc(SC(=Cc2ccc(Cl)cc2Cl)C(=O)c2ccc(Br)cc2)cc1 [Example 61]	1 to 10 µM	1 to 10 µM	–

IC50 [1, 2]	IC50 (DU145 (prostate cancer); [2])	SMILES	IC50 [1, 3]	IC50 (DU145 (prostate cancer); [3])	other results
–	–	O=C(C(=Cc1ccc(F)cc1F)Sc1ccc(Br)cc1)c1ccc(Cl)cc1 [Example 18]	1 to 10 µM	1 to 10 µM	–
1 to 10 µM	10 to 25 µM	O=C(C(=Cc1ccc(O)cc1)SCc1ccc(Cl)cc1)c1ccc(Cl)cc1 [Example 222]	–	–	–
–	–	COc1ccc(C=C(Sc2ccc(Br)cc2)C(=O)c2ccc(Cl)cc2)cc1 [Example 48]	1 to 10 µM	50 to 100 µM	–
1 to 10 µM	1 to 10 µM	O=C(C(=Cc1ccc(OCc2ccccc2)cc1)SCc1ccccc1Cl)c1ccccc1Cl [Example 128]	–	–	–
1 to 10 µM	1 to 10 µM	O=C(O)c1ccc(C(=O)C(=Cc2ccc(N3CCN(Cc4ccccc4)CC3)c([N+](=O)[O-])c2)SCc2ccc(F)cc2)cc1 [Example 328]	–	–	–
≤ 1 µM	1 to 10 µM	CCN(CC)CCOc1ccc(C(=O)/C(=C\c2ccc(F)c([N+](=O)[O-])c2)SCc2ccc(F)cc2)cc1 [Example 338]	–	–	–
1 to 10 µM	10 to 25 µM	COc1ccccc1C=C(SCc1ccc(F)cc1)C(=O)c1ccc(Cl)cc1 [Example 240]	–	–	–
10 to 25 µM	1 to 10 µM	COc1cc(OC)c(C=C(SCc2ccc(Cl)cc2)C(=O)c2ccc(Br)cc2)c(OC)c1 [Example 193]	–	–	–
–	–	COc1ccccc1C=C(Sc1ccc(Br)cc1)C(=O)c1ccc(Cl)cc1 [Example 25]	10 to 25 µM	10 to 25 µM	–
1 to 10 µM	1 to 10 µM	O=C(O)c1ccc(C(=O)/C(=C\c2ccc(F)c([N+](=O)[O-])c2)SCc2ccc(Br)cc2)cc1 [Example 172]	–	–	–
> 100 µM	> 100 µM	O=C(O)c1ccc(C(=O)/C(=C\c2ccc(Br)cc2)SCc2ccc(F)cc2)cc1 [Example 334]	–	–	–
–	–	Cc1ccc(SC(=Cc2c[nH]c3ccc(Br)cc23)C(=O)c2ccc(Br)cc2)cc1 [Example 105]	10 to 25 µM	1 to 10 µM	–
50 to 100 µM	50 to 100 µM	CCN(CC)CCNC(=O)c1c(C)[nH]c(C=C(SCc2ccc(C)cc2)C(=O)c2ccc(C(=O)O)cc2)c1C [Example 284]	–	–	–
1 to 10 µM	1 to 10 µM	O=C(C(=Cc1ccc(Br)cc1)SCc1ccc(Cl)cc1)c1ccc(Cl)cc1 [Example 215]	–	–	–
–	–	O=C(C(=Cc1ccc(F)cc1)Sc1ccc(Br)cc1)c1ccc(Br)cc1 [Example 40]	1 to 10 µM	10 to 25 µM	–
–	–	COc1ccc(C=C(Sc2ccc(Br)cc2)C(=O)c2ccc(Br)cc2)c(F)c1 [Example 23]	1 to 10 µM	10 to 25 µM	–
1 to 10 µM	10 to 25 µM	O=C(C(=Cc1ccc(Br)cc1)SCc1ccccc1Cl)c1ccc(Cl)cc1 [Example 129]	–	–	–
10 to 25 µM	10 to 25 µM	COc1cc(OC)c(C=C(SCc2ccc(F)cc2)C(=O)c2ccc(Cl)cc2)c(OC)c1 [Example 234]	–	–	–
–	–	O=C(C(=Cc1ccccc1F)Sc1ccc(Br)cc1)c1ccc(Cl)cc1 [Example 24]	1 to 10 µM	10 to 25 µM	–
1 to 10 µM	10 to 25 µM	O=C(C(=Cc1c[nH]c2ccc(Br)cc12)SCc1ccc(Cl)cc1Cl)c1ccc(Cl)cc1 [Example 123]	–	–	–

IC50 [1, 2]	IC50 (DU145 (prostate cancer); [2])	SMILES	IC50 [1, 3]	IC50 (DU145 (prostate cancer); [3])	other results
> 100 µM	> 100 µM	O=C(O)c1ccc(C=C(SCc2ccc(Cl)cc2)C(=O)c2ccc(C(=O)O)cc2)cc1 [Example 323]	–	–	–
1 to 10 µM	10 to 25 µM	CC(=O)Nc1ccc(/C=C(/SCc2ccc(F)cc2)C(=O)c2ccc(C(=O)O)cc2)cc1[N+](=O)[O-] [Example 332]	–	–	–
–	–	COc1ccc2[nH]cc(C=C(Sc3ccc(Br)cc3)C(=O)c3ccc(Br)cc3)c2c1 [Example 52]	1 to 10 µM	1 to 10 µM	–
25 to 50 µM	50 to 100 µM	CCOC(=O)c1c(C)[nH]c(/C=C(/SCc2ccc(Br)cc2)C(=O)c2ccc(Br)cc2)c1C [Example 170]	–	–	–
10 to 25 µM	1 to 10 µM	O=C(C(=Cc1ccc(OCc2ccccc2)cc1)SCc1ccc(Cl)cc1Cl)c1ccc(Cl)cc1 [Example 121]	–	–	–
1 to 10 µM	10 to 25 µM	O=C(C(=Cc1ccc([N+](=O)[O-])c(O)c1)SCc1ccc(Br)cc1)c1c(F)c(F)c(F)c(F)c1F [Example 152]	–	–	–
–	–	O=C(C(=Cc1ccc(O)c([N+](=O)[O-])c1)Sc1ccc(Br)cc1)c1ccc(Br)cc1 [Example 43]	1 to 10 µM	1 to 10 µM	–
25 to 50 µM	1 to 10 µM	COc1cc(OC)c(C=C(SCc2ccc(Cl)cc2Cl)C(=O)c2ccc(Cl)cc2)c(OC)c1 [Example 116]	–	–	–
1 to 10 µM	1 to 10 µM	O=C(O)c1ccc(C(=O)/C(=C\c2ccc(Br)cc2)SCc2ccc(Br)cc2)cc1 [Example 166]	–	–	–
–	–	O=C(/C(=C\c1ccc(Cl)cc1Cl)Sc1ccc(Br)cc1)c1ccc(Br)cc1 [Example 15, (E)-1-(4-Bromophenyl)-2-(4-bromophenylthio)-3-(2,4-dichlorophenyl)-prop-2-en-1-one]	–	–	IC50 ([1]; Homo sapiens, Table 1, examined 96 hours after treatment, 1 μM to 100 μM in DMSO): 1 to 10 µM; IC50 (DU145 (prostate cancer); Homo sapiens, DU-145, Table 1, examined 96 hours after treatment, 1 μM to 100 μM in DMSO): 1 to 10 µM
10 to 25 µM	> 100 µM	CN(C)c1ccc(C=C(SCc2ccc(Cl)cc2)C(=O)c2ccc(Cl)cc2)cc1 [Example 210]	–	–	–
≤ 1 µM	1 to 10 µM	CN1CCN(CCNC(=O)c2ccc(C(=O)C(=Cc3ccc(F)c([N+](=O)[O-])c3)SCc3ccc(Br)cc3)cc2)CC1 [Example 311]	–	–	–
≤ 1 µM	1 to 10 µM	O=C(O)c1ccc(C(=O)C(=Cc2ccc(Cl)c([N+](=O)[O-])c2)SCc2ccccc2F)cc1 [Example 304]	–	–	–
25 to 50 µM	50 to 100 µM	O=C(C(=Cc1ccc(O)cc1O)SCc1cccc(Cl)c1)c1ccc(Br)cc1 [Example 145]	–	–	–
–	–	O=C(C(=Cc1ccc(Br)cc1)Sc1ccc(Br)cc1)c1ccc(Cl)cc1 [Example 36]	1 to 10 µM	1 to 10 µM	–
–	–	O=C(C(=Cc1ccc(O)c([N+](=O)[O-])c1)Sc1ccccc1Br)c1ccc(Br)cc1 [Example 10]	10 to 25 µM	1 to 10 µM	–
–	–	O=C(C(=Cc1ccccc1OCc1ccccc1)Sc1ccc(F)cc1)c1ccc(Cl)cc1 [Example 55]	1 to 10 µM	1 to 10 µM	–
1 to 10 µM	1 to 10 µM	O=C(C(=Cc1ccc(C(F)(F)F)cc1)SCc1ccc(Cl)cc1)c1ccc(Cl)cc1 [Example 327]	–	–	–
